# Experimental data as given in patent publication US10759754B2, “Aminobenzoic acid derivatives for use as anti-inflammatory agents, anti-metastatic agents and/or anticancer agents” (3R VALO, S.E.C., priority 2016, dated 2020).
# “Also recorded” adds a separate entry of the source.
# Experiments:
# [1] = test system: IκB / NFκB signaling pathway; assay: Western blot of phosphorylated IκB in LPS-activated RAW 264.7 cells; format: cell-based, murine; details: 90 min pretreatment at 20 and 37.5 μM, 100 ng/mL LPS 15 min
# [2] = test system: murine UBC MB49-I cells; details: 90 min pretreatment, counted after 24 h
# [3] = test system: MB49-I tumors; assay: Ectopic UBC model, MB49-I tumors implanted in the flank of male mice; format: in vivo; details: i.p. 150 μM during 18 days, tumors recovered day 20
# Protocol: Ectopic UBC model. Male C57BL/6J mice (6-8 weeks old), each weighing 15-18 g, were used for the experiments (supplied by Charles River). The mice were housed with free access to food and water on a 12:12 h light:dark cycle with the room temperature maintained at 21° C. MB49 cells, MB49-I cells, and iNOS-deficient MB49-I cells ([…] in 100 μL PBS) were injected subcutaneously (s.c.) into the right flank of the mice. Growth rates of the s.c. tumors were monitored. The size of tumors was determined every 3 days for 24-28 days using a digital caliper and by measuring luciferin luminescence at days 15 and 25 using the IVIS imaging system. A blinded observer measured tumor length and width. The volume of the tumor was calculated from the formula: Length×width2×0.52, where length and width were tumor diameters measured with calipers in mutually perpendicular directions. At a tumor size of approximately 10 mm^3 the mice were divided into different groups. A control group received PBS as treatment. As indicated, other groups were treated at different doses (90, 150 or 300 μM) with an intraperitoneal (i.p.) injection of compounds 4 or 8 every 3-4 days for 18-20 days.^24,27
# [4] = test system: MB49-I cells; assay: LPS/IFNγ-induced NO production in MB49-I cells; format: cell-based, murine
# Protocol: Evaluation of NO and Urea production by chemical methods. The MB49-I cells and the J774A.1 cells (25×10^3 cells/well) were grown and pretreated, as indicated, with various anti-inflammatory derivatives, precursors and mono-functional derivatives for a period of 3 h. […] NO production was measured using the Griess reagent method as previously described.^27 This method involves the detection of nitrite ions (NO2^−) formed by the spontaneous oxidation of NO under physiological conditions. According the manufacture procedure (Life Technologies; # G-7921), equal volumes of sulfanilic acid and N-(1-naphthyl)ethylenediamine are mixed together to form the Griess reagent. In the presence of NO2^−, sulfanilic acid is converted to a diazonium salt, which in turn is coupled to N-(1-naphthyl)ethylenediamine to produce a pink coloration that is measured with a spectrophotometer (Biotek, synergy HT) at 548 nm. In the same manner, urea synthesis through arginase-1 activity was measured using commercially available kit.
# [5] = test system: STAT1; assay: Western blot of phosphorylated STAT1 in IFNγ-activated RAW 264.7 cells; format: cell-based, murine; details: 90 min pretreatment at 20 and 37.5 μM, 5 ng/mL IFNγ 15 min
# Protocol: (§1) Cell signaling studies: THP1-derived human macrophages (750×10^3 cells/mL) and MB49-I cells (500×10^3 cells/mL) were pretreated for 30 min with vehicle (DMSO), compounds 4 and 5, at 10, 25 or 50 μM; and then washed and recovered immediately (t=0 min) or after 30 min of activation with 50 U/mL IFNγ, 25 ng/mL IL6, or 10 ng/mL TNFα. Cell lysates were prepared and analyzed by immunoblotting as described.^21-23,25 Briefly, protein samples were resolved by SDS-PAGE under reducing conditions and transferred onto a PVDF membrane. Blots were first probed with rabbit polyclonal antibodies against phospho-STAT1 (pSTAT1), pSTAT3, or p-IκB (all at 1:2000) overnight at 4° C. Blots were then incubated with HRP-conjugated goat anti-rabbit IgG Ab (1:3000) for 1 h at room temperature. The same blots were stripped and then probed with anti-STAT1 or anti-STAT3 Abs (both at 1:1000). In both cases, probed molecules were visualized using an enhancement chemiluminescence detection kit (Thermo Fisher Scientific).
# [6] = test system: human macrophages THP-1 cells; details: 90 min pretreatment, counted after 24 h
# [7] = test system: murine macrophages RAW 264.7 cells; details: 90 min pretreatment, counted after 24 h
# [8] = test system: STAT3; assay: Western blot of phosphorylated STAT3 in IL6-activated human macrophages; format: cell-based; details: human macrophages pretreated 30 min at 10 and 50 μM; 30 min activation with 25 ng/mL IL6; hydrochloride
# Protocol: as §1
# [9] = test system: macrophage-like J774A.1 cells; assay: IFNγ/TNFα-induced NO production (Griess) in J774A.1 cells; format: cell-based, murine; details: pretreatment then IFNγ and TNFα, hydrochloride
# Protocol: (§2) Evaluation of NO and Urea production by chemical methods. The MB49-I cells and the J774A.1 cells (25×10^3 cells/well) were grown and pretreated, as indicated, with various anti-inflammatory derivatives, precursors and mono-functional derivatives for a period of 3 h. Afterwards the cells were washed twice with 10% FBS RPMI-1640 and then activated to produce NO for a period of 24 h with cytokines INFγ and TNFα. NO production was measured using the Griess reagent method as previously described.^27 This method involves the detection of nitrite ions (NO2^−) formed by the spontaneous oxidation of NO under physiological conditions. According the manufacture procedure (Life Technologies; # G-7921), equal volumes of sulfanilic acid and N-(1-naphthyl)ethylenediamine are mixed together to form the Griess reagent. In the presence of NO2^−, sulfanilic acid is converted to a diazonium salt, which in turn is coupled to N-(1-naphthyl)ethylenediamine to produce a pink coloration that is measured with a spectrophotometer (Biotek, synergy HT) at 548 nm. In the same manner, urea synthesis through arginase-1 activity was measured using commercially available kit.
# [10] = test system: CD40; assay: Flow cytometry of CD40 surface antigen in IFNγ-activated human macrophages; format: cell-based; details: compound 4 at 10 μM, compound 5 at 25 μM, hydrochloride
# Protocol: (§3) Surface antigen expression analysis. To study membrane receptor expression, THP1-derived human macrophages (750×10^4 cells/mL) were pretreated for 3 h with DMSO or compounds 4 and 5, and then left untreated (control) or treated for 48 h with 50 U/mL IFNγ. The expression level of MHC-II and CD40 was evaluated by flow cytometry as described.^21-23
# [11] = test system: UBC cell line MB49-I; assay: IFNγ/TNFα-induced NO production (Griess) in MB49-I cells; format: cell-based, murine; details: 10 and 50 μM
# Protocol: as §2
# [12] = test system: STAT1; assay: Western blot of phosphorylated STAT1 in IFNγ-activated human macrophages; format: cell-based; details: human macrophages pretreated 30 min at 10 and 50 μM; 30 min activation with 50 U/mL IFNγ; hydrochloride
# Protocol: as §1
# [13] = test system: MHC-II; assay: Flow cytometry of MHC-II surface antigen in IFNγ-activated human macrophages; format: cell-based; details: compound 4 at 10 μM, compound 5 at 25 μM, hydrochloride
# Protocol: as §3
compound,measurement,setting,value
"CC(=O)N(NC(=O)OC(C)(C)C)C(=O)c1ccc(N2C(=O)C=CC2=O)cc1 [Compound 10, N-acetyl-N-[4-(2,5-dioxo-2,5-dihydro-pyrrol-1-yl)-benzoyl]-hydrazinecarboxylic acid tert-butyl ester]",LPS-activated NFκB signaling pathway (ratio p-IkB/IkB),[1],efficient to inhibit
"CC(=O)N(C(=O)OC(C)(C)C)N(C(C)=O)C(=O)c1ccc(N2C(=O)C=CC2=O)cc1 [Compound 11, N,N′-diacetyl-N′-[4-(2,5-dioxo-2,5-dihydro-pyrrol-1-yl)-benzoyl]-hydrazinecarboxylic acid tert-butyl ester]",LPS-activated NFκB signaling pathway (ratio p-IkB/IkB),[1],efficient to inhibit
"CC(=O)N(NC(=O)c1ccc(N2C(=O)C=CC2=O)cc1)C(C)=O [Compound 8, 4-(2,5-dioxo-2,5-dihydro-pyrrol-1-yl)-benzoic acid N′-diacetyl-hydrazide]",cytotoxic effect (cell viability),[2],lower than that of compound 4
same,tumor volume of muscle-invasive MB49-I tumors,[3],anti-proliferative activity; also recorded: more efficient than compound 4
same,IFNγ/LPS-induced NO production,[4]; 20 and 37.5 μM,more efficient than compound 4
same,IFNγ-activated STAT1 signaling pathway (ratio p-STAT1/STAT1),[5],more efficient than other compounds
same,LPS-activated NFκB signaling pathway (ratio p-IkB/IkB),[1],efficient to inhibit
same,cytotoxic effect (cell viability),[6],lower than that of compound 4
same,cytotoxic effect (cell viability),[7],lower than that of compound 4
"Cl.NNC(=O)c1ccc(N2C(=O)C=CC2=O)cc1 [Compound 5, 4-(2,5-dioxo-2,5-dihydro-pyrrol-1-yl)-benzoic acid hydrazide hydrochloride]",IL6-induced STAT3 activation (ratio of phosphorylated/no phosphorylated proteins),[8],decreased; also recorded: efficiently inhibited
same,combined IFNγ/TNFα-induced NO synthesis,[9],effective in reducing; also recorded: efficiently inhibited
same,IFNγ-induced CD40 expression,[10],effective in reducing; also recorded: efficiently inhibited
same,combined IFNγ/TNFα-induced NO synthesis,[11],efficiently inhibited
same,IFNγ-induced STAT1 activation (ratio of phosphorylated/no phosphorylated proteins),[12],decreased; also recorded: efficiently inhibited
same,IFNγ-induced MHC-II expression,[13],effective in reducing; also recorded: efficiently inhibited
"CC(C)(C)OC(=O)NNC(=O)c1ccc(N2C(=O)CCC2=O)cc1 [Compound 12, N′-[4-(2,5-dioxo-pyrrolidin-1-yl)-benzoyl]-hydrazine carboxylic acid tert-butyl ester]",LPS/IFNγ-induced NO synthesis,"[4]; compound 4 at 30 μM, compound 12 at 10, 20, 37.5 and 50 μM",lost its anti-inflammatory activity; also recorded: does not affect
